Assay results from PubChem BioAssay (NCI).
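Compound exposure: 48 hours, 5 concentrations, 96-well plates. GI50 = concentration required for 50% inhibition of growth. TGI: concentration producing complete growth inhibition.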

How the values were obtained:
Assay in all cases: DTP human tumour cell line panel, 48 h
SN12C renal = test system: SN12C renal
SNB-75 CNS = test system: SNB-75 CNS
SF-295 CNS = test system: SF-295 CNS
NCI-H522 lung = test system: NCI-H522 lung
BT-549 breast = test system: BT-549 breast
HCT-116 colon = test system: HCT-116 colon
NCI-H23 lung = test system: NCI-H23 lung
SR leukemia = test system: SR leukemia
T-47D breast = test system: T-47D breast
MDA-MB-435 = test system: MDA-MB-435
COLO 205 colon = test system: COLO 205 colon
UACC-257 melanoma = test system: UACC-257 melanoma
SK-MEL-28 melanoma = test system: SK-MEL-28 melanoma
SW-620 colon = test system: SW-620 colon
SK-OV-3 ovarian = test system: SK-OV-3 ovarian
NCI-H226 lung = test system: NCI-H226 lung
HOP-62 NSCLC = test system: HOP-62 NSCLC
HCC-2998 colon = test system: HCC-2998 colon
UO-31 renal = test system: UO-31 renal
786-0 renal = test system: 786-0 renal
KM12 colon = test system: KM12 colon
K-562 leukemia = test system: K-562 leukemia
SF-539 CNS = test system: SF-539 CNS
LOX IMVI melanoma = test system: LOX IMVI melanoma
A498 renal = test system: A498 renal
M14 melanoma = test system: M14 melanoma
A549 NSCLC = test system: A549 NSCLC
HL-60(TB) leukemia = test system: HL-60(TB) leukemia
TK-10 renal = test system: TK-10 renal
UACC-62 melanoma = test system: UACC-62 melanoma
MOLT-4 leukemia = test system: MOLT-4 leukemia
ACHN renal = test system: ACHN renal
RXF 393 renal = test system: RXF 393 renal
EKVX NSCLC = test system: EKVX NSCLC
NCI/ADR-RES ovarian = test system: NCI/ADR-RES ovarian
SF-268 CNS = test system: SF-268 CNS
SK-MEL-2 melanoma = test system: SK-MEL-2 melanoma
HCT-15 colon = test system: HCT-15 colon
OVCAR-8 ovarian = test system: OVCAR-8 ovarian
DU-145 prostate = test system: DU-145 prostate
SNB-19 CNS = test system: SNB-19 CNS
NCI-H460 lung = test system: NCI-H460 lung
MDA-MB-231 breast = test system: MDA-MB-231 breast
MALME-3M melanoma = test system: MALME-3M melanoma
MCF7 breast = test system: MCF7 breast
OVCAR-4 ovarian = test system: OVCAR-4 ovarian
PC-3 prostate = test system: PC-3 prostate
OVCAR-3 ovarian = test system: OVCAR-3 ovarian
HT29 colon = test system: HT29 colon
OVCAR-5 ovarian = test system: OVCAR-5 ovarian
U251 CNS = test system: U251 CNS
SK-MEL-5 melanoma = test system: SK-MEL-5 melanoma
IGROV1 ovarian = test system: IGROV1 ovarian

Question: How did the GI50 (SN12C renal) turn out when `COCC(=O)Oc1cc(-c2ccc(C)cc2C)c(OC(=O)COC)c(-c2ccc(C)cc2C)c1` was run?
Answer: 9.11 µM

Question: And the TGI (SN12C renal)?
Answer: 28.7 µM

Question: What about the GI50 (SNB-75 CNS) of the same molecule?
Answer: 3.22 µM

Question: And the TGI (SNB-75 CNS)?
Answer: 20.4 µM

Question: What about the GI50 (SF-295 CNS) of the same molecule?
Answer: 5.58 µM

Question: What about the TGI (SF-295 CNS) of the same molecule?
Answer: 29.6 µM

Question: And the GI50 (NCI-H522 lung)?
Answer: 4.07 µM

Question: What about the TGI (NCI-H522 lung) of the same molecule?
Answer: 18.3 µM

Question: What about the GI50 (BT-549 breast) of the same molecule?
Answer: 7.7 µM

Question: And the TGI (BT-549 breast)?
Answer: 22.9 µM

Question: And the GI50 (HCT-116 colon)?
Answer: 0.797 µM

Question: And the TGI (HCT-116 colon)?
Answer: 14.4 µM

Question: And the GI50 (NCI-H23 lung)?
Answer: 5.61 µM

Question: And the TGI (NCI-H23 lung)?
Answer: 23.4 µM

Question: What about the GI50 (SR leukemia) of the same molecule?
Answer: 1.59 µM

Question: And the TGI (SR leukemia)?
Answer: > 100 µM

Question: What about the GI50 (T-47D breast) of the same molecule?
Answer: 4.52 µM

Question: What about the TGI (T-47D breast) of the same molecule?
Answer: 54.9 µM

Question: And the GI50 (MDA-MB-435)?
Answer: 6.62 µM

Question: What about the TGI (MDA-MB-435) of the same molecule?
Answer: 30.2 µM

Question: What about the GI50 (COLO 205 colon) of the same molecule?
Answer: 8.76 µM

Question: What about the TGI (COLO 205 colon) of the same molecule?
Answer: 23.8 µM

Question: And the GI50 (UACC-257 melanoma)?
Answer: 8.23 µM

Question: And the TGI (UACC-257 melanoma)?
Answer: 35.9 µM

Question: What about the GI50 (SK-MEL-28 melanoma) of the same molecule?
Answer: 11.2 µM

Question: And the TGI (SK-MEL-28 melanoma)?
Answer: 23.6 µM

Question: What about the GI50 (SW-620 colon) of the same molecule?
Answer: 5.09 µM

Question: What about the TGI (SW-620 colon) of the same molecule?
Answer: 18.3 µM

Question: And the GI50 (SK-OV-3 ovarian)?
Answer: 13.2 µM

Question: And the TGI (SK-OV-3 ovarian)?
Answer: 61.5 µM

Question: And the GI50 (NCI-H226 lung)?
Answer: 8.59 µM

Question: And the TGI (NCI-H226 lung)?
Answer: 46.9 µM

Question: What about the GI50 (HOP-62 NSCLC) of the same molecule?
Answer: 11.7 µM

Question: What about the TGI (HOP-62 NSCLC) of the same molecule?
Answer: 28.1 µM

Question: What about the GI50 (HCC-2998 colon) of the same molecule?
Answer: 13.5 µM

Question: What about the TGI (HCC-2998 colon) of the same molecule?
Answer: 28.9 µM

Question: What about the GI50 (UO-31 renal) of the same molecule?
Answer: 2.47 µM

Question: And the TGI (UO-31 renal)?
Answer: 15.5 µM

Question: And the GI50 (786-0 renal)?
Answer: 10.7 µM

Question: What about the TGI (786-0 renal) of the same molecule?
Answer: 48.3 µM

Question: And the GI50 (KM12 colon)?
Answer: 4.45 µM

Question: What about the TGI (KM12 colon) of the same molecule?
Answer: 19.5 µM

Question: And the GI50 (K-562 leukemia)?
Answer: 3.56 µM

Question: What about the TGI (K-562 leukemia) of the same molecule?
Answer: > 100 µM

Question: What about the GI50 (SF-539 CNS) of the same molecule?
Answer: 12 µM

Question: And the TGI (SF-539 CNS)?
Answer: 28.8 µM

Question: And the GI50 (LOX IMVI melanoma)?
Answer: 1.12 µM

Question: And the TGI (LOX IMVI melanoma)?
Answer: 15.5 µM

Question: What about the GI50 (A498 renal) of the same molecule?
Answer: 5.57 µM

Question: What about the TGI (A498 renal) of the same molecule?
Answer: 19.9 µM

Question: And the GI50 (M14 melanoma)?
Answer: 7.69 µM

Question: What about the TGI (M14 melanoma) of the same molecule?
Answer: 21.6 µM

Question: What about the GI50 (A549 NSCLC) of the same molecule?
Answer: 4.73 µM

Question: And the TGI (A549 NSCLC)?
Answer: 29.1 µM

Question: And the GI50 (HL-60(TB) leukemia)?
Answer: 2.21 µM

Question: And the TGI (HL-60(TB) leukemia)?
Answer: 77.4 µM

Question: What about the GI50 (TK-10 renal) of the same molecule?
Answer: 20.4 µM

Question: And the TGI (TK-10 renal)?
Answer: > 100 µM

Question: What about the GI50 (UACC-62 melanoma) of the same molecule?
Answer: 3.43 µM

Question: And the TGI (UACC-62 melanoma)?
Answer: 31.9 µM

Question: And the GI50 (MOLT-4 leukemia)?
Answer: 2.96 µM

Question: What about the TGI (MOLT-4 leukemia) of the same molecule?
Answer: > 100 µM

Question: And the GI50 (ACHN renal)?
Answer: 9.07 µM

Question: What about the TGI (ACHN renal) of the same molecule?
Answer: > 100 µM

Question: And the GI50 (RXF 393 renal)?
Answer: 11.2 µM

Question: What about the TGI (RXF 393 renal) of the same molecule?
Answer: 46.1 µM

Question: What about the GI50 (EKVX NSCLC) of the same molecule?
Answer: 4.36 µM

Question: And the TGI (EKVX NSCLC)?
Answer: 58.9 µM

Question: And the GI50 (NCI/ADR-RES ovarian)?
Answer: 5.84 µM

Question: And the TGI (NCI/ADR-RES ovarian)?
Answer: 55.3 µM

Question: What about the GI50 (SF-268 CNS) of the same molecule?
Answer: 3.91 µM

Question: What about the TGI (SF-268 CNS) of the same molecule?
Answer: 23.9 µM

Question: And the GI50 (SK-MEL-2 melanoma)?
Answer: 14.7 µM

Question: And the TGI (SK-MEL-2 melanoma)?
Answer: 33.9 µM

Question: And the GI50 (HCT-15 colon)?
Answer: 0.58 µM

Question: And the TGI (HCT-15 colon)?
Answer: > 100 µM

Question: And the GI50 (OVCAR-8 ovarian)?
Answer: 4.51 µM

Question: What about the TGI (OVCAR-8 ovarian) of the same molecule?
Answer: 90.3 µM

Question: What about the GI50 (DU-145 prostate) of the same molecule?
Answer: 10.3 µM

Question: And the TGI (DU-145 prostate)?
Answer: 30.2 µM

Question: What about the GI50 (SNB-19 CNS) of the same molecule?
Answer: 11.9 µM

Question: What about the TGI (SNB-19 CNS) of the same molecule?
Answer: 43.6 µM

Question: And the GI50 (NCI-H460 lung)?
Answer: 0.592 µM

Question: And the TGI (NCI-H460 lung)?
Answer: 13.7 µM

Question: And the GI50 (MDA-MB-231 breast)?
Answer: 6.03 µM

Question: And the TGI (MDA-MB-231 breast)?
Answer: 26.5 µM

Question: What about the GI50 (MALME-3M melanoma) of the same molecule?
Answer: 9.2 µM

Question: What about the TGI (MALME-3M melanoma) of the same molecule?
Answer: 25.5 µM

Question: And the GI50 (MCF7 breast)?
Answer: 4.75 µM

Question: And the TGI (MCF7 breast)?
Answer: 51.4 µM

Question: And the GI50 (OVCAR-4 ovarian)?
Answer: 3.33 µM

Question: And the TGI (OVCAR-4 ovarian)?
Answer: 23.6 µM

Question: And the GI50 (PC-3 prostate)?
Answer: 0.824 µM

Question: And the TGI (PC-3 prostate)?
Answer: 35.1 µM

Question: What about the GI50 (OVCAR-3 ovarian) of the same molecule?
Answer: 3.64 µM

Question: And the TGI (OVCAR-3 ovarian)?
Answer: 16.5 µM

Question: What about the GI50 (HT29 colon) of the same molecule?
Answer: 4.02 µM

Question: What about the TGI (HT29 colon) of the same molecule?
Answer: 21.8 µM

Question: What about the GI50 (OVCAR-5 ovarian) of the same molecule?
Answer: 21.7 µM

Question: What about the TGI (OVCAR-5 ovarian) of the same molecule?
Answer: 61 µM

Question: And the GI50 (U251 CNS)?
Answer: 2.02 µM

Question: What about the TGI (U251 CNS) of the same molecule?
Answer: 23 µM

Question: And the GI50 (SK-MEL-5 melanoma)?
Answer: 2.04 µM

Question: What about the TGI (SK-MEL-5 melanoma) of the same molecule?
Answer: 15.7 µM

Question: What about the GI50 (IGROV1 ovarian) of the same molecule?
Answer: 5.56 µM

Question: What about the TGI (IGROV1 ovarian) of the same molecule?
Answer: 25.3 µM
